Assay results taken from patent US12692274B2, “Tetrahydroisoquinoline derivatives for the treatment of red blood disorders and inflammatory diseases” (Sanofi, priority 2020, dated 2026).
“And” between values parts separate entries of the source, which are not always exact repeats. Equal values may be shown once.

Columns and labels:
[1] = test system: NQO1 activation in BEAS-2B cells; assay: BEAS-2B cellular MTT assay of NQO1 activation, 0% HSA; format: cell-based
How it was run: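 BEAS-2B cells grown in BEBM with BEGM SingleQuots (no GA-1000), kept below 70% confluence, seeded on collagen plates at a density giving 95-100% confluence after 48 h. Plates seeded in medium without HSA (0% HSA condition).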

[2] = test system: NQO1 activation in BEAS-2B cells; assay: BEAS-2B cellular MTT assay of NQO1 activation, 0.3% HSA; format: cell-based
How it was run: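 BEAS-2B cells (<70% confluent in culture, BEBM/SingleQuots without GA-1000) seeded in collagen plates with 0.3% or 0% HSA, reaching 95-100% confluency after 48 h at 37 °C, 5% CO2; MTT read-out.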

[3] = molecular target: HIS-Keap1 full length / Biotin-Nrf2 (16-mer) (Homo sapiens, UniProt Q14145); assay: biochemical
[4] = Homo sapiens, serum free, read-out: BEAS EC50 (nM) serum free
[5] = Homo sapiens, BEAS+, read-out: BEAS+ EC50
[6] = serum free, read-out: BEAS EC50 (nM) serum free
[7] = Homo sapiens, Serum Free W, read-out: BEAS EC50 (nM) Serum Free W
[8] = Serum Free W, read-out: BEAS EC50 (nM) Serum Free W
[9] = BEAS+ W, read-out: BEAS+ W EC50
[10] = Homo sapiens, BEAS+ W, read-out: BEAS+ W EC50

Sequence of HIS-Keap1 full length / Biotin-Nrf2 (16-mer) (Q14145 whole entry): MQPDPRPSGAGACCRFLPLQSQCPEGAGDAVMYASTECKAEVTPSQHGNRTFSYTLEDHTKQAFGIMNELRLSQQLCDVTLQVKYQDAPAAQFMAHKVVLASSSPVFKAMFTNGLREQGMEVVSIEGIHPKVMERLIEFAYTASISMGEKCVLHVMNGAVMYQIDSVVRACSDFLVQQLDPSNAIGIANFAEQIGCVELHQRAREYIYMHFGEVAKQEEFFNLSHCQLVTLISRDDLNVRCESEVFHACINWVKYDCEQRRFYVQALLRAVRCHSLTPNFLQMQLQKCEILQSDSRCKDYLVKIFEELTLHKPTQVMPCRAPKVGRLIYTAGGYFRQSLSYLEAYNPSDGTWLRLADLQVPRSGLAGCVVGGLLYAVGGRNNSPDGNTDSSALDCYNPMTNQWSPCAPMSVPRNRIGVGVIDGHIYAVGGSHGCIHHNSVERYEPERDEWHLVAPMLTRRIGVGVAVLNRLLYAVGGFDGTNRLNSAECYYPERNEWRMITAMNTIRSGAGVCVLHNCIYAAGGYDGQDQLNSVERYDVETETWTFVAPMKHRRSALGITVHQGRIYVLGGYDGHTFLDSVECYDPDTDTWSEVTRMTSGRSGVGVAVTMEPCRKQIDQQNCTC

SMILES	EC50 [1, 4]	EC50 [2, 5]	IC50 [3]	EC50 [1, 6]	EC50 ([2]; BEAS+, read-out: BEAS+ EC50)	EC50 [1, 7]	EC50 [1, 8]	EC50 [2, 9]	EC50 [2, 10]
Cc1c2ccc3c1nnn3CCCCCc1ccc(cc1)C(=O)N1CCc3ccc(cc3C1)[C@H]2CC(=O)O [Compound 286]	15.8 nM	44.5 nM	0.7 nM						
CC(C)(C(=O)O)C1c2ccc3c(c2)CN(CC3)C(=O)c2ccc(cc2F)OCCCCCCn2nnc3cc1ccc32 (stereo not drawn) [Compound 288]	2.7 nM	34.3 nM	1.8 nM and 2.3 nM						
Cc1cc2ccc1C(=O)N1CCc3ccc(cc3C1)[C@H]([C@H](C)C(=O)O)c1ccc3c(c1)nnn3CCCCCCO2 [Compound 292]	349 nM	637 nM	7.7 nM and 5.9 nM						
Cc1cc2cc(C)c1C(=O)N1CCc3ccc(cc3C1)C(CC(=O)O)c1ccc3c(c1)nnn3CCCCCCO2 (stereo not drawn) [Compound 293]	141 nM	208 nM	< 0.1 nM						
Cc1cc2ccc1C(=O)N1CCc3ccc(cc3C1)[C@@H]([C@H](C)C(=O)O)c1ccc3c(c1)nnn3CCCCCCO2 [Compound 294]	450 nM	809 nM	22.1 nM and 17.3 nM						
Cc1cc2ccc1C(=O)N1CCc3ccc(cc3C1)C(CC(=O)O)c1ccc3c(nnn3CCCCCCO2)c1C (stereo not drawn) [Compound 297]	1.8 nM	2.9 nM	0.2 nM						
Cc1cc2ccc1C(=O)N1CCc3ccc(cc3C1)C(C(C)(C)C(=O)O)c1ccc3c(c1)nnn3CCCCCCO2 (stereo not drawn) [Compound 299]	0.6 nM	3.6 nM	< 0.1 nM						
O=C(O)CC1c2ccc(nc2)OCCCCCc2ccc(cc2)C(=O)N2CCc3ccc1cc3C2 (stereo not drawn) [Compound 300]	3.1 nM	10.8 nM	< 0.1 nM	5.4 nM	7.9 nM				
Cc1cc2ccc1C(=O)N1CCc3ccc(cc3C1)C(CC(=O)O)c1ccc(nc1)OCCCCCCO2 (stereo not drawn) [Compound 301]	80.6 nM	317 nM	6.8 nM and 6 nM	144 nM	214 nM				
Cc1c2ccc3c1nnn3CCCCCOc1ccc(c(Cl)c1)C(=O)N1CCc3ccc(cc3C1)C2CC(=O)O (stereo not drawn) [Compound 302]	129 nM	134 nM	0.8 nM and 0.9 nM	213 nM	196 nM				
Cc1c2ccc3c1nnn3CCCCC(F)(F)Oc1ccc(cc1)C(=O)N1CCc3ccc(cc3C1)C2CC(=O)O (stereo not drawn) [Compound 304]	18.3 nM	25.1 nM	< 0.1 nM and 0.2 nM		29 nM				
O=C(O)CC1c2ccc3c(c2)CN(CC3)C(=O)c2ccc(cc2Cl)OCCCCCCn2nnc3cc1ccc32 (stereo not drawn) [Compound 305]	345 nM	651 nM	< 0.1 nM		748 nM				
Cc1c2ccc3c1nnn3CCCCCOc1ccc(c(F)c1F)C(=O)N1CCc3ccc(cc3C1)C2CC(=O)O (stereo not drawn) [Compound 306]	68.1 nM	134 nM	0.1 nM and < 0.1 nM		90.1 nM				
Cc1c2ccc3c1nnn3CCCCCCc1ccc(cc1)C(=O)N1CCc3ccc(cc3C1)C2CC(=O)O (stereo not drawn) [Compound 307]	0.4 nM	3.7 nM	0.2 nM		5.2 nM				
Cn1c2cc3cc(ccc31)OCCCCCCn1nnc3cc(ccc31)C(CC(=O)O)c1ccc3c(c1)CN(CC3)C2=O (stereo not drawn) [Compound 310]	698 nM	9100 nM	0.3 nM and < 0.1 nM		9570 nM				
Cc1c2ccc3c1nnn3CCCCCOc1cc(F)c(c(F)c1)C(=O)N1CCc3ccc(cc3C1)C2CC(=O)O (stereo not drawn) [Compound 314]	2.6 nM	109 nM	4.4 nM and 1.8 nM						
Cc1c2ccc3c1nnn3CCCCCCOc1cc(F)c(c(F)c1)C(=O)N1CCc3ccc(cc3C1)C2CC(=O)O (stereo not drawn) [Compound 315]	2.2 nM	25.9 nM	0.7 nM and 0.3 nM						
Cc1c2ccc3c1nnn3CCCCCOc1ccc(c(F)c1)C(=O)N1CCc3ccc(cc3C1)C2CC(=O)O (stereo not drawn) [Compound 316]	141 nM	77.9 nM	1.6 nM and 0.9 nM						

SMILES	EC50 [1, 4]	EC50 [2, 5]	IC50 [3]	EC50 [1, 6]	EC50 ([2]; BEAS+, read-out: BEAS+ EC50)	EC50 [1, 7]	EC50 [1, 8]	EC50 [2, 9]	EC50 [2, 10]
Cc1c2ccc3c1nnn3CCCCCCOc1ccc(c(F)c1F)C(=O)N1CCc3ccc(cc3C1)C2CC(=O)O (stereo not drawn) [Compound 318]	20.4 nM	59.2 nM	0.8 nM						
O=C(O)CC1c2ccc(nc2)OCCCCCCOc2ccc(cc2)C(=O)N2CCc3ccc1cc3C2 (stereo not drawn) [Compound 319]	432 nM	1430 nM	99 nM and 106 nM						
O=C(O)CC1c2ccc3c(c2)CN(CC3)C(=O)c2ccc(c(F)c2F)OCCCCCCn2nnc3cc1ccc32 (stereo not drawn) [Compound 320]	332 nM	462 nM	< 0.1 nM						
O=C(O)CC1c2ccc3c(c2)CN(CC3)C(=O)c2c(F)cc(cc2F)OCCCCCCn2nnc3cc1ccc32 (stereo not drawn) [Compound 321]	75.7 nM	88.9 nM	0.4 nM and 0.1 nM						
O=C(O)CC1c2ccc3c(c2)CN(CC3)C(=O)c2ccc(cc2F)OCCCCCCn2nnc3cc1ccc32 (stereo not drawn) [Compound 322]	176 nM	231 nM	0.8 nM and 1 nM						
C[C@H](C(=O)O)[C@H]1c2ccc3c(c2)CN(CC3)C(=O)c2ccc(cc2)OCCCCCCn2nnc3cc1ccc32 [Compound 323]	135 nM	386 nM	1.2 nM and 1.8 nM						
C[C@@H](C(=O)O)[C@H]1c2ccc3c(c2)CN(CC3)C(=O)c2ccc(cc2)OCCCCCCn2nnc3cc1ccc32 [Compound 324]	6 nM	18.1 nM	0.4 nM						
CC(C(=O)O)C1c2ccc3c(c2)CN(CC3)C(=O)c2ccc(cc2)OCCCCCn2nnc3cc1ccc32 (stereo not drawn) [Compound 325]	2.9 nM	4 nM	< 0.1 nM						
Cc1cc2ccc1C(=O)N1CCc3ccc(cc3C1)[C@@H](CC(=O)O)c1ccc3c(c1)nnn3CCCCCCO2 [Compound 327]	52.9 nM	179 nM	0.8 nM and 2.3 nM	46.9 nM					
Cc1c2ccc3c1nnn3CCCCCOc1ccc(cc1)C(=O)N1CCc3ccc(cc3C1)C2CC(=O)O (stereo not drawn) [Compound 331]	47.4 nM	40.3 nM	1.7 nM and 4.3 nM and 2.6 nM and 10.9 nM						
Cc1cc2ccc1C(=O)N1CCc3ccc(cc3C1)C(CC(=O)O)c1ccc3c(c1)nnn3CCCCCCO2 (stereo not drawn) [Compound 332]	27.4 nM	62.7 nM	< 0.1 nM						
Cc1cc2ccc1C(=O)N1CCc3ccc(cc3C1)C(CC(=O)O)c1ccc3c(nnn3CCCCCO2)c1C (stereo not drawn) [Compound 335]	35 nM	36.1 nM	2.5 nM and 2.9 nM and 6.4 nM and 1.3 nM						
O=C(O)CC1c2ccc3c(c2)CN(CC3)C(=O)c2ccc(c3ccccc23)OCCCCCn2nnc3cc1ccc32 (stereo not drawn) [Compound 337]	1890 nM	2540 nM	0.7 nM and 0.8 nM						
Cc1cc2ncc1[C@H](CC(=O)O)c1ccc3c(c1)CN(CC3)C(=O)c1ccc(cc1)CCOCCO2 [Compound 350]			11.5 nM and 10.1 nM and 9.8 nM and 10.2 nM			161 nM	145 nM	426 nM	276 nM
Cc1cc2ncc1[C@@H](CC(=O)O)c1ccc3c(c1)CN(CC3)C(=O)c1ccc(cc1)CCOCCO2 [Compound 351]			649 nM and 619 nM and 401 nM and 416 nM			> 1000 nM	1780 nM	2880 nM and 2800 nM	3740 nM
Cc1c2cnc3c1nnn3CCCC/C=C/Cc1ccc(cc1)C(=O)N1CCc3ccc(cc3C1)[C@H]2CC(=O)O [Compound 352]			6.8 nM and 7.7 nM			21.9 nM	33 nM	481 nM	417 nM
Cc1c2cnc3c1nnn3CCCC/C=C/Cc1ccc(cc1)C(=O)N1CCc3ccc(cc3C1)[C@@H]2CC(=O)O [Compound 353]			0.5 nM			16.8 nM	19.1 nM	109 nM	72.3 nM
Cc1c2cnc3c1nnn3CCCCCc1cccc(c1)C(=O)N1CCc3ccc(cc3C1)C2CC(=O)O (stereo not drawn) [Compound 354]			20.1 nM and 13.8 nM			> 1000 nM		2130 nM	2700 nM
